As a reminder, the bioavailability is dose-corrected exposure relative to a reference, in per cent. One may read the IC50 as the concentration that inhibits the measured activity by half. Broadly, the EC50 is the concentration giving half of the maximal effect. In general, clearance refers to the rate of elimination divided by the concentration. A word on the MRT: it is a mean duration of stay, worked out from the concentration-time curve. One may read the Emax as the size of the effect at its maximum, as opposed to the concentration needed.

The source made the active and inactive calls. No cut-off for these calls is given here.

One compound from ChEMBL document CHEMBL4725394 (J Med Chem, 2020) can be followed below.

Data set [1] in a line: Cmax in ICR mouse at 1 mg/kg, po by high-performance LC-tandem MS analysis. It counts as ADME, organism-based. The arrangement: route oral, dose 1 mg/kg. As to conditions: in vivo.
The nature of data set [2]: Oral bioavailability in Sprague-Dawley rat at 1 mg/kg by high-performance LC-tandem MS analysis. It counts as ADME, organism-based. As to conditions: in vivo.
The nature of data set [3]: Volume of distribution at steady state in ICR mouse at 0.1 mg/kg, iv by high-performance LC-tandem MS analysis. It counts as ADME, organism-based. Particulars: in vivo, read-out: Vdss.
Data set [4] concerns the target Voltage-gated inwardly rectifying potassium channel KCNH2 (Homo sapiens, UniProt Q12809). Nature of the data set: Inhibition of human ERG.
A short description of data set [5]: Oral bioavailability in ICR mouse at 1 mg/kg by high-performance LC-tandem MS analysis. As to conditions: in vivo. It counts as ADME, organism-based.
Data set [6] can be described thus: AUC (0 to 8 hrs ) in ICR mouse at 1 mg/kg, po by high-performance LC-tandem MS analysis. It is filed as ADME, organism-based. The arrangement: time < 8 hr, route oral, dose 1 mg/kg. Particulars: in vivo.
Data set [7] in a line: Cytotoxicity in human HepG2 cells assessed as intracellular ATP content level at 30 uM by ATPlite-M assay relative to control. It counts as cell-based. Particulars: time 1 day, read-out: Activity. In general terms: ATP-based viability assays read luminescence as a measure of living cells.
Data set [8] can be described thus: Cmax in Sprague-Dawley rat at 1 mg/kg, po by high-performance LC-tandem MS analysis. It is filed as ADME, organism-based. Particulars: in vivo. The arrangement: route oral, dose 1 mg/kg.
Data set [9] concerns Rattus norvegicus. The experiment in a line: Suppression of body weight in Wistar Kyoto N-STZ-1.5 rat model of streptozotocin-induced diabetes at 0.1 to 1 mg/kg, po followed by glucose challenge during 2-week-dosing study. It is filed as functional, organism-based. As to conditions: dose mg/kg 0.1-1, time 2.0 weeks.
The target in data set [10] is T1, Free fatty acid receptor 1 (Homo sapiens, UniProt O14842). Nature of the data set: Agonist activity at human GPR40 expressed in CHO cells incubated for 60 mins by FLIPR based Ca2+ mobilization assay. It counts as functional, cell-based. (Calcium flux is commonly read through the fluorescence of an indicator in the cells.)
The subject of data set [11] is Rattus norvegicus. The experiment in a line: Suppression of glucose tolerance in Wistar Kyoto N-STZ-1.5 rat model of streptozotocin-induced diabetes at 0.1 to 1 mg/kg, po followed by glucose challenge. It is filed as functional, organism-based. Particulars: dose mg/kg 0.1-1.
Data set [12] in a line: Total clearance in ICR mouse at 0.1 mg/kg, iv by high-performance LC-tandem MS analysis. It is filed as ADME, organism-based. As to conditions: in vivo.
A short description of data set [13]: Volume of distribution at steady state in Sprague-Dawley rat at 0.1 mg/kg, iv by high-performance LC-tandem MS analysis. It counts as ADME, organism-based. Particulars: in vivo, read-out: Vdss.
The nature of data set [14]: AUC (0 to 24 hrs) in Wistar Kyoto N-STZ-1.5 rat model of streptozotocin-induced diabetes at 0.1 to 1 mg/kg, po followed by glucose challenge during 2-week-dosing study. It is filed as ADME, organism-based. The arrangement: time 2 weeks, dose 0.1-1. As to conditions: in vivo.
A short description of data set [15]: AUC (0 to 8 hrs) in Sprague-Dawley rat at 1 mg/kg, po by high-performance LC-tandem MS analysis. It counts as ADME, organism-based. The arrangement: time < 8 hr, route oral, dose 1 mg/kg. Particulars: in vivo.
Data set [16] is described as follows: MRT in Sprague-Dawley rat at 1 mg/kg, po by high-performance LC-tandem MS analysis. It counts as ADME, organism-based. As to conditions: in vivo.
Data set [17] in a line: Cmax in Wistar Kyoto N-STZ-1.5 rat model of streptozotocin-induced diabetes at 0.1 to 1 mg/kg, po followed by glucose challenge during 2-week-dosing study. It counts as ADME, organism-based. The arrangement: time 2 weeks, dose 0.1-1. Particulars: in vivo.
The target in data set [18] is T1, Free fatty acid receptor 1. Nature of the data set: Agonist activity at human GPR40 expressed in CHO cells incubated for 60 mins by FLIPR based Ca2+ mobilization assay relative to gamma-linolenic acid. It is filed as functional, cell-based. Particulars: filed as agonist.
Data set [19] deals with Rattus norvegicus. The experiment in a line: Stimulation of insulin secretion in Wistar Kyoto N-STZ-1.5 rat model of streptozotocin-induced diabetes at 0.1 to 1 mg/kg, po followed by glucose challenge by ELISA. It is filed as functional, organism-based. Particulars: dose mg/kg 0.1-1. Background: ELISA stands for enzyme-linked immunosorbent assay.
A short description of data set [20]: MRT in ICR mouse at 1 mg/kg, po by high-performance LC-tandem MS analysis. It is filed as ADME, organism-based. As to conditions: in vivo.
In data set [21] the test system is Rattus norvegicus. The experiment in a line: Stimulation of GLP1 release in Wistar Kyoto N-STZ-1.5 rat model of streptozotocin-induced diabetes at 0.1 to 1 mg/kg, po followed by glucose challenge by ELISA. It is filed as functional, organism-based. Particulars: dose mg/kg 0.1-1.
Data set [22] can be described thus: Total clearance in Sprague-Dawley rat at 0.1 mg/kg, iv by high-performance LC-tandem MS analysis. It is filed as ADME, organism-based. Particulars: in vivo.

T1 sequence (O14842 whole entry): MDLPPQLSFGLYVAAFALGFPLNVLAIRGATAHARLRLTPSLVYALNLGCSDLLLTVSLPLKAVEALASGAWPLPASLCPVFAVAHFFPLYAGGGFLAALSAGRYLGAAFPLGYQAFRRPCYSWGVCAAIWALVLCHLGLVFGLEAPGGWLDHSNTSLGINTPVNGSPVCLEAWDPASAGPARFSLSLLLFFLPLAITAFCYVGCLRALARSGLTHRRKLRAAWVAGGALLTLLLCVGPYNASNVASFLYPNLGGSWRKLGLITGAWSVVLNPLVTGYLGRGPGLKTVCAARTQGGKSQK
Sequence of Voltage-gated inwardly rectifying potassium channel KCNH2 (Q12809 whole entry): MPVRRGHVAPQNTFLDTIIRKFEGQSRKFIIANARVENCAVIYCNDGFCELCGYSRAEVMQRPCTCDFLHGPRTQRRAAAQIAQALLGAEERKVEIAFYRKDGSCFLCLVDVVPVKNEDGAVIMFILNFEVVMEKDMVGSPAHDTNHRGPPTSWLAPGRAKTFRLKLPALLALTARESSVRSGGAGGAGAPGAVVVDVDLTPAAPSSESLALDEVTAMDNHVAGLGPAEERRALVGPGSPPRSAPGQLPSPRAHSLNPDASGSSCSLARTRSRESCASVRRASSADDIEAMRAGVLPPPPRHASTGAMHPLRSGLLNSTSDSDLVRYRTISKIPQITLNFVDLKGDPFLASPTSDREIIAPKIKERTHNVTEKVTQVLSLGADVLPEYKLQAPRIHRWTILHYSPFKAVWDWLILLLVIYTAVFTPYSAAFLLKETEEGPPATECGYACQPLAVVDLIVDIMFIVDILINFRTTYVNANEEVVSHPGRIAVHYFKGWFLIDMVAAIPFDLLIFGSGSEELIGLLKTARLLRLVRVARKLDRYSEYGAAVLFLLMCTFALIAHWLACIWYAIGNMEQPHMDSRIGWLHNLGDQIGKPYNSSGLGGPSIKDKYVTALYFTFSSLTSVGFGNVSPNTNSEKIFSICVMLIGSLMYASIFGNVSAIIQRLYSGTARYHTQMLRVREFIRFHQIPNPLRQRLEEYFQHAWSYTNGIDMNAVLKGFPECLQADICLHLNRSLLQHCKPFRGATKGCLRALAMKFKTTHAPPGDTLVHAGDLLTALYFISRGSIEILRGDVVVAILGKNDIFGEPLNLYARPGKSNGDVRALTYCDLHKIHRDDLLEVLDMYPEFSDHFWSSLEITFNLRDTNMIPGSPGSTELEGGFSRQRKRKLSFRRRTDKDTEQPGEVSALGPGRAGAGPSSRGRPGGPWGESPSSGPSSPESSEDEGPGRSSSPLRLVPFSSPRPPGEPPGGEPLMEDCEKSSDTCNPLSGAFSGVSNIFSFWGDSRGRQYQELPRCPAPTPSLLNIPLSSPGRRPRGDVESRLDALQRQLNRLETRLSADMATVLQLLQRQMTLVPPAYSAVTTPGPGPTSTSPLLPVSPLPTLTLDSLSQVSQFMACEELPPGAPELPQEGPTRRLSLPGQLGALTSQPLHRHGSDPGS

Consider `COc1ccc(C(=O)N(CC(C)(C)C)c2cccc(C)n2)c(N2CCC(COc3cc([C@@H](CC(=O)O)C4CC4)ccn3)CC2)c1`, for which the Cmax in data set [1] worked out at 33.2 ng/mL; in [8] it was 19.9 ng/mL; in [17] it was 139 ng/mL. Besides, the bioavailability worked out at 16% in data set [2] and 26% in data set [5]. The Vd in data set [3] is 1.35 L/kg; in [13], 3.09 L/kg. For the same compound, the IC50 in data set [4] was greater than 10 µM. Further, the AUC(0-t) at 8 h in data set [6] was found to be 98.7 ng·h/mL; in data set [15], 127 ng·h/mL. Also, the viability at 24 h, 30 µM in data set [7] came out at 92.1%. The outcome in the data set on Rattus norvegicus [9], with Rattus norvegicus [11], with Rattus norvegicus [19] and in the data set with Rattus norvegicus [21] was Active. In data set [10], this compound came in with an EC50 of 0.012 µM. Besides, the clearance in [12] is 43.1 mL/min/kg; in data set [22], 24.6 mL/min/kg. In addition, in data set [14], the AUC(0-t) at 336 h stood at 626 ng·h/mL. Moreover, the MRT in [16] worked out at 4.1 h; in [20], 2.3 h. For the same compound, the Emax in [18] was 108%.
